Test results reported in PMC8443589, “Modelling human liver fibrosis in the context of non-alcoholic steatohepatitis using a microphysiological system” (Communications Biology, 2021).

Tested on: liver MPS NASH model (PHH, KC and HSC co-cultures)
Assay: Cue study: pro-fibrotic biomarkers TIMP-1, pro-collagen 1, fibronectin (Fig 5c)
Assay type: cell-based, human
Conditions: for Fibronectin (Fold change in cytokine production compared to control) / Pro-collagen 1 (Fold change in cytokine production compared to control) / TIMP-1 (Fold change in cytokine production compared to control): fat medium + cue
Text: Assessment of gene expression changes was supplemented by assessment of the secretome produced by NASH microtissues in the MPS after exposure to the various cues. Increased pro-inflammatory cytokine secretion is a defining characteristic in NASH patients, so we conducted a Luminex cytokine array covering 42 different biomarkers, cytokines and chemokines secreted into the culture media of the different microtissues at multiple time points. We consistently detected 27 out of the 42 biomarkers and observed that there was differential expression of cytokines and chemokines driven by the different cues applied to the micro-tissue (Fig. 5a, b). The LPS cue and the presence of higher NPC numbers were responsible for driving the largest increase in cytokine and chemokine release, with the largest increases in cytokines measured on day 14 (Fig. 5b). […] Similarly, to the cytokine production, these changes were not further enhanced by combining cues, as all the cue combinations containing TGFβ had the highest expression (Supp. Fig. 17c).
Fig. 5 Systems biology interrogation of liver MPS NASH model to determine physiologically relevant cues that promote soluble biomarker changes to mimic advanced NASH disease state. PHH, KC and HSC co-cultures were cultured in the MPS platform under a variety of conditions for 14 days to test number of NPCs, presence of fat, fructose, cholesterol, LPS and TGFβ for effects on the soluble biomarker profile of the liver MPS NASH model. Expression of biomarkers, cytokines and chemokines were compared, all concentrations were normalised by Z-transformation to allow comparison and shown relative to mean for each marker (white = not detected). a Cytokine expression compared with varying levels of NPCs; b for the high NPC group in the presence of additional cues; c Expression of pro-fibrotic biomarkers with varying NPC content and with additional varying cues in high NPC condition (additional data in Supp. Fig. 17). d Graphical summary of the changes that occur in the NASH model in the presence of Fat and Fat + TGFβ. All data were generated from a minimum of three independent replicate samples per condition.
The MPS LC12 plates consists of 12 individual bioreactors that contain pneumatically driven micro-pumps to recirculate cell culture medium through a collagen-coated scaffold. Cells were cultured using the protocol previously described[20],[21], but briefly, PHH were seeded at a density of 6 × 10^5 viable cells per well on the LC12 plates with each NPC population (KC and/or HSC) at a density of 6 × 10^4 viable cells per well. Each well contained a final volume of 1.6 mL of medium per well and maintained under a flow rate of 1.0 µL/s. Cells were seeded in Williams E medium containing primary hepatocyte thawing and plating supplements (Life Technologies, USA) and cultured initially under downward flow for 8 h before the flow was automatically reversed to upward flow for the next 16 h of culture. Microtissues were then cultured in either HEP-Lean or HEP-Fat medium, both media’s are proprietary to CN Bio Innovations Ltd. The HEP-Fat medium is a derivative of the HEP-LEAN medium and contains a mixture of saturated and unsaturated FFAs, as well as physiologically relevant quantities of insulin and sugars. Complete media changes were performed on all wells every 48–72 h. For certain experiments, the media was supplemented with additional additives from day 4 onwards: 1 ng/ml LPS (lipopolysaccharides from Escherichia coli O111:B4) (Sigma Aldrich, UK), 1 ng/ml recombinant TGF beta 1 protein (Abcam, UK); 500 µM Fructose (Sigma Aldrich, UK), 50 µg/ml Cholesterol (Sigma Aldrich, UK). […]

TGFβ: recombinant TGF beta 1 protein (Abcam), 1 ng/ml cue
Fibronectin (Fold change in cytokine production compared to control) (Day 6, high NPC): 1.218 | Pro-collagen 1 (Fold change in cytokine production compared to control) (Day 6, high NPC): 1.954 | TIMP-1 (Fold change in cytokine production compared to control) (Day 6, high NPC): 2.132 | Fibronectin (Fold change in cytokine production compared to control) (Day 11, high NPC): 1.379 | Pro-collagen 1 (Fold change in cytokine production compared to control) (Day 11, high NPC): 1.672 | TIMP-1 (Fold change in cytokine production compared to control) (Day 11, high NPC): 1.0946 | Fibronectin (Fold change in cytokine production compared to control) (Day 14, high NPC): 0.05285 | Pro-collagen 1 (Fold change in cytokine production compared to control) (Day 14, high NPC): 0.4105 | TIMP-1 (Fold change in cytokine production compared to control) (Day 14, high NPC): 0.9486 | pro-collagen 1, fibronectin and TIMP-1 expression (cue study): most significant increases
